In patent US20090209535A1, “6-ETHER/THIOETHER-PURINES AS TOPOISOMERASE II CATALYTIC INHIBITORS AND THEIR USE IN THERAPY” (TOPOTARGET A/S, priority 2005, published 2009):
Structures can show the parent of a compound that is named as a salt. Where two headings read alike, the source gives them in different places. Each block holds one compound with its values, some of them ahead of it.

What was measured:
topoisomerase II α = topoisomerase II α (Homo sapiens, UniProt P11388); test: Topoisomerase II ATPase assay (coupled, NADH oxidation); type: biochemical; parameters: made in house; host or cells: yeast (over-expressing yeast cells); conditions: for inhibition of ATPase activity in the presence of DTT, in words: 10 mM DTT in the reaction buffer
Sequence of topoisomerase II α (P11388 whole entry): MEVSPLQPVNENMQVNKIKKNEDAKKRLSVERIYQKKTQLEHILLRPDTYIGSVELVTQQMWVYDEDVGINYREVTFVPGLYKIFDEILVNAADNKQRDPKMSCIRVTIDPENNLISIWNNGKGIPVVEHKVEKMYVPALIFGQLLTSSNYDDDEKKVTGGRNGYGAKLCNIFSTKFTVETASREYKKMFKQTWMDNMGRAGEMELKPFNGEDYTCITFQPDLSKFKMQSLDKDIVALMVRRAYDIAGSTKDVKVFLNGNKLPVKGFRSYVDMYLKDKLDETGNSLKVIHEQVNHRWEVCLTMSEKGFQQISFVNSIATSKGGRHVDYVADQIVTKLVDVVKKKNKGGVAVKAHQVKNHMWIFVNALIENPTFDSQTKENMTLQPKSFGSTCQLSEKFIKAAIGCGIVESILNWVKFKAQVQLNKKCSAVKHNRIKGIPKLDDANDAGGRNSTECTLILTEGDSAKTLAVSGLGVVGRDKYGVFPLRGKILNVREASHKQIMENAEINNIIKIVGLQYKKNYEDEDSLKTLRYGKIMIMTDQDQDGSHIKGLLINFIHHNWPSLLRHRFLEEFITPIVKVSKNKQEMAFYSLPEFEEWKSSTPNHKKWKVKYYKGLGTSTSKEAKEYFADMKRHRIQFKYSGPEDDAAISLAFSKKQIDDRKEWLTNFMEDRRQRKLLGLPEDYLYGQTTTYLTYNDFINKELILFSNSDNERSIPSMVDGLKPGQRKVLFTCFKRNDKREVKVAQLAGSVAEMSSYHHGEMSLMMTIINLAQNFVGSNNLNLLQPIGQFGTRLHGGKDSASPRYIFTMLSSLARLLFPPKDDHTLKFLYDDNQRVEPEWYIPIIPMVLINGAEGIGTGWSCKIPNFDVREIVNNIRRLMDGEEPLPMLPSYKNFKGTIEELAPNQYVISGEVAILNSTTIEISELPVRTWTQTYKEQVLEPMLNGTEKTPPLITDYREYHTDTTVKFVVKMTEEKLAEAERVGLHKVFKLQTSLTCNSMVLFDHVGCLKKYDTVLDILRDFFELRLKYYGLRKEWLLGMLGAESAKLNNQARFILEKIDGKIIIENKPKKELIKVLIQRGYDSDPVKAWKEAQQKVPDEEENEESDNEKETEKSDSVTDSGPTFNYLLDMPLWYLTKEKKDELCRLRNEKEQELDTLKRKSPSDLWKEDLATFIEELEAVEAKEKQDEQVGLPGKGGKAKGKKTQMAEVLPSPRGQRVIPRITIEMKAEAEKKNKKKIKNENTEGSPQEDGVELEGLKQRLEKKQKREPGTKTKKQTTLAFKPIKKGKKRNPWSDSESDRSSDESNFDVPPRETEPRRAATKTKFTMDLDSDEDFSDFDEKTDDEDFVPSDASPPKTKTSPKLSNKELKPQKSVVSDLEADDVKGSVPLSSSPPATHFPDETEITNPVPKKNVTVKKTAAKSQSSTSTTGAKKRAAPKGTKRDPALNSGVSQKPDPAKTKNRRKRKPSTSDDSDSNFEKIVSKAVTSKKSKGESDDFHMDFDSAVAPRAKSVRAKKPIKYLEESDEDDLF
Protocol: The reaction was monitored spectrophotometrically at 340 nm using a Bio-Tek EL808 Ultra Micro plate Reader connected to a computer with KC4 Software installed (Bio-Tek Instruments, U.S.). The change in absorbance was related to ADP production using A340^1M=6220 cm^−1. […] The rate of ATP hydrolysis, V, was determined from the linear part of the curve.
The steady-state rate of ATP hydrolysis was determined using a coupled ATPase assay as described herein. […] Error bars represent SEM of two independent experiments each performed in duplicate.
The steady-state rate of ATP hydrolysis was determined as described in for FIG. 3 and as described herein. In this analysis, the rate of ATP hydrolysis in the absence of drug was set to one in all experiments. Error bars represent SEM of 2 or 3 independent experiments each preformed in duplicate.

[1] = biological target: T1, wild-type human topoisomerase II α (Homo sapiens, UniProt P11388); test: Topoisomerase II DNA strand passage assay (kDNA decatenation), wild-type enzyme; type: biochemical; conditions: for inhibition of DNA strand passage (decatenation) activity, in words: wild-type enzyme, FIG. 2-A and FIG. 5
T1 construct: made in house; host or cells: yeast (over-expressing yeast cells)
T1 sequence (P11388 whole entry): as above
Protocol: Topoisomerase II catalytic activity (DNA strand passage activity) was measured by using a filter-based kDNA decatenation assay as described in Jensen et al., 2002. Briefly, 200 ng ^3H labelled kDNA isolated from C. fasciculata was incubated with increasing concentrations of drug in 20 μL reaction buffer containing 10 mM TRIS-HCl pH 7.7, 50 mM NaCl, 50 mM KCl, 5 mM MgCl2, 1 mM EDTA, 15 μg/mL BSA and 1 mM ATP using two units of purified wild-type or Y165S mutant topoisomerase II α for 20 minutes at 37° C. (where one unit of activity is defined as the amount of enzyme required for complete decatenation in the absence of drug). After addition of 5× stop buffer (5% Sarkosyl, 0.0025% bromophenol blue, and 50% glycerol), unprocessed kDNA network and decatenated DNA mini-circles were separated by filtering, and the amount of unprocessed kDNA in each reaction was determined by scintillation counting.
FIG. 2 describes the results of studies of the inhibition of topoisomerase II DNA strand passage activity by increasing concentrations of NSC 35866. Inhibition of human topoisomerase II α DNA strand passage activity was assessed by decatenation of tritium-labelled Crithidia fasiculata kDNA using a filter-based assay to separate unprocessed kDNA network from decatenated mini-circles. […] Error bars represent SEM of three independent experiments in panel A and two independent experiments in panel B.
Inhibition of human topoisomerase II α DNA strand passage activity was determined by decatenation of tritium labelled Crithidia fasiculata kDNA as described for FIG. 2. Error bars represent SEM of 3 or 4 independent experiments.

human SCLC OC—NYH cells [2] = test: Clonogenic assay, antagonism of etoposide-induced cytotoxicity; type: cell-based
Protocol: Cells were then plated in 0.3% agar in 6 cm petri dishes with sheep red blood cells as feeder layer in triplicate, and were incubated under the same conditions as described above. Plates were counted after 3 weeks.
20 μM etoposide was then added, and the cells were incubated for one hour. Next, the drugs were washed out and the cells were plated and counted after three weeks as described herein.

[3] = biological target: T2, human topoisomerase II α-DNA covalent complexes (Homo sapiens, UniProt P11388); test: Topoisomerase II DNA cleavage assay (phenol-chloroform extraction, Δcpm); type: biochemical
T2 construct: made in house; host or cells: yeast (over-expressing yeast cells)
T2 sequence (P11388 whole entry, one chain of several): as the sequence (P11388 whole entry) above
Text: In order to determine the ability of NSC 35866 to increase the level of topoisomerase II-DNA covalent complexes on DNA in vitro, a new and highly sensitive topoisomerase II DNA cleavage assay having a numeric readout was developed. […] The DNA substrate is a 950 bp linear ^3H-labelled DNA synthesized by PCR in the presence of ^3H-dATP. […] The DNA fragment was isolated from unincorporated dNTPs by ethanol precipitation at 0.3 M NaCl, followed by washing in 70% ethanol. The specific activity of the fragment was typically 10,000-20,000 cpm/μg. Before starting the assay, a drug dilution series comprising 10× the final drug concentration was made. Reaction mixtures containing 100 ng of the 950 bp linear ^3H-labelled DNA, 300 ng human topoisomerase II q, topoisomerase II cleavage buffer (10 mM TRIS-HCL pH 7.9, 50 mM NaCl, 50 mM KCl, 5 mM MgCl2, 1 mM EDTA, 15 μg/mL BSA and 1 mM Na2ATP), and increasing concentrations of drug in 50 μL reaction volumes were then incubated 10 minutes at 37° C. A “no topoisomerase II” sample and a “no drug” sample were always included as controls. Next, the cleavable complex was trapped by adding 5 μL 10% SDS. After vigorous vortexing, 45 uL TE buffer, pH=8.0, was added to obtain 100 μL per sample. 100 μL phenol:chloroform:isoamyl alcohol (25:24:1) equilibrated with TE buffer, pH=8.0, was then added, and the samples were vortexed vigorously for 30 seconds. Finally, the samples were centrifuged at 20,000 g for 2 minutes and 90 μL of the upper water phase was used for scintillation counting using 15 mL of Ultima gold scintillation fluid (Packard).
In order to establish whether NSC 35866 inhibits the DNA strand passage reaction of topoisomerase II by stabilising a covalent reaction intermediate, a new and highly sensitive topoisomerase II DNA cleavage assay having a numeric read-out was developed. This assay is based on the fact that after extraction with phenol-chloroform, protein-bound DNA is removed from the water phase, while naked DNA remains in the water phase. […] Consequently, in reactions containing topoisomerase II and linear DNA, the ability of compounds to remove DNA from the water phase after phenol-chloroform extraction should reflect their potency as topoisomerase II poisons. This assay was first validated by incubating 100 ng of a linear 950 bp PCR DNA fragment with 300 ng of purified human topoisomerase II α in the presence of increasing concentrations of the etoposide and m-AMSA. The DNA fragment was ^3H labelled by performing PCR in the presence of ^3H-dATP. In these experiments, a “no topoisomerase II” sample was always included to determine the level of radioactivity (DNA) retained in the water-phase when no enzyme is present. Within each experiment, the CPM values retained in the water phase in the topoisomerase II reactions were then subtracted from this background CPM value to give Δcpm. Consequently, the Δcpm values of samples with no drug added represent the background level of topoisomerase II-DNA covalent complexes present in the reaction mixture under the assay conditions, while the Δcpm levels in the presence of drugs represent the levels of poison-induced topoisomerase II-DNA covalent complexes.

human SCLC OC—NYH cells [4] = test: Alkaline elution assay (DNA breaks); type: cell-based; conditions: 3 μM
Protocol: Alkaline elution assay was performed as described in Kohn et al., 1976 with modifications as described in Sehested et al., 1998. Briefly, to assess the ability of NSC 35866 to protect against etoposide-induced DNA breaks, cells were incubated with increasing concentrations of NSC 35866 for 10 minutes, before 3 μM etoposide was added to the samples. The cells were then co-incubated with 3 μM etoposide along with the same concentrations of NSC 35866 for 60 minutes. Some samples contained no etoposide in order to assess whether NSC 35866 induced DNA breaks by itself. After incubation with drug, cells were lysed and the DNA fragments eluted. DNA in the experimental OC—NYH cells was metabolically labelled by ^14C-thymidine incorporation while DNA in the internal control L1210 cells was metabolically labelled by ^3H-thymidine incorporation.
FIG. 9 describes the results of studies of the ability of NSC 35866 to antagonise DNA breaks induced by etoposide in human SCLC OC—NYH cells in a dose dependent manner. Alkaline DNA elution was used to detect DNA fragmentation induced by 3 μM etoposide in the presence of increasing concentrations of NSC 35866 as described herein. H202 treated mouse leukemic L1210 cells were used as internal control for DNA fragmentation. The DNA of the experimental OC—NYH cells was ^14C-labelled while the DNA of the L1210 cells was 3H-labelled.

[5] = measured in the absence of DTT, read-out: IC50
[6] = in the presence of DNA (DNA-stimulated), read-out: IC50, inhibition of ATPase activity

IC50 (topoisomerase II α; [5]): 121 µM
Compound: Cn1cnc([N+](=O)[O-])c1Sc1nc(N)nc2c1ncn2C1CC(O)C(CO)O1 (stereo not shown) [NSC172614]

IC50 (topoisomerase II α; [5]): 13.4 µM
Compound: Nc1nc(SCc2ccccc2)c2[nH]cnc2n1 [NSC15747]

IC50 (topoisomerase II α; [5]): 12.7 µM
Compound: CSc1nc(Cl)c(Br)c(Sc2nc(N)nc3[nH]cnc23)n1 [NSC52383]

IC50 (topoisomerase II α; [5]): 0.372 µM
Compound: Nc1nc(Sc2ccc([N+](=O)[O-])c3nonc23)c2[nH]cnc2n1 [NSC348401]

IC50 (topoisomerase II α; [5]): 53.6 µM
Compound: Nc1nc(SCc2ccc(F)cc2)c2nc[nH]c2n1 [NSC35865]

IC50 (topoisomerase II α; [5]): 151 µM
Compound: Nc1nc(SCCCc2ccccc2)c2nc[nH]c2n1 [NSC39328]

IC50 (topoisomerase II α; [5]): 34.1 µM
Compound: CNc1ncnc(Sc2nc(N)nc3[nH]cnc23)c1[N+](=O)[O-] [NSC38732]

IC50 (topoisomerase II α; [5]): 2.74 µM
Compound: CCOC(=O)c1cc([N+](=O)[O-])c(Sc2ncnc3[nH]cnc23)c([N+](=O)[O-])c1 [NSC244708]

IC50 (topoisomerase II α; [5]): 36.4 µM
Compound: CCSc1nc(N)c(Br)c(Sc2nc(N)nc3[nH]cnc23)n1 [NSC52388]

IC50 (topoisomerase II α; [5]): 0.389 µM
Compound: Nc1nc(Sc2cc([N+](=O)[O-])c3nonc3c2)c2ncn(C3OC(CO)C(O)C3O)c2n1 (stereo not shown) [NSC348400]

IC50 (topoisomerase II α; [5]): 85.4 µM
Compound: CCCCCSc1nc(N)nc2[nH]cnc12 [NSC35862]

IC50 (topoisomerase II α; [5]): 19 µM
Compound: N#CCSc1nc(N)nc2[nH]cnc12 [NSC39331]

IC50 (topoisomerase II α; [5]): 7.87 µM
Compound: CCn1c(C)nc([N+](=O)[O-])c1Sc1nc(N)nc2[nH]cnc12 [NSC42375]

IC50 (topoisomerase II α; [5]): 0.777 µM
Compound: O=[N+]([O-])c1ccc(Sc2ncnc3[nH]cnc23)c2nonc12 [NSC348402]

IC50 (topoisomerase II α; [5]): 68.9 µM
Compound: Nc1nc(SC/C=C/c2ccccc2)c2nc[nH]c2n1 [NSC36824]

IC50 (topoisomerase II α; [5]): 119 µM
Compound: CC(=O)OCSc1ncnc2c1ncn2CN1CCOCC1 [NSC647471]

IC50 (topoisomerase II α; [5]): 14.1 µM
Compound: Cc1ccc(CSc2nc(N)nc3[nH]cnc23)cc1 [NSC46384]

Second part, the compound before the results:

Compound: Nc1nc2c(ncn2Cc2ccccc2)c(=O)[nH]1 [9-benzylguanine, reference compound]
inhibitory effect on ATPase reaction, in words (topoisomerase II α; concentrations up to 300 μM): no inhibitory effect

Compound: COc1nc(N)nc2nc[nH]c12 [O^6-methylguanine, reference compound]
inhibitory effect on ATPase reaction, in words (topoisomerase II α; concentrations up to 300 μM): no detectable inhibitory effect

Compound: Sc1ncc2nc[nH]c2n1 [2-thiopurine]
inhibition of DNA strand passage (decatenation) activity, in words [1]: virtually no effect | effect on the level of etoposide-induced cytotoxicity, in words (human SCLC OC—NYH cells [2]; concentrations up to 30 μM): no detectable effect | IC50 (topoisomerase II α; [6]): ~3 µM

Compound: Cn1cnc([N+](=O)[O-])c1Sc1ncnc2nc[nH]c12 [azathioprine, 6-(1-methyl-4-nitroimidazol-5-yl)thiopurine, reference compound]
effect on the level of etoposide-induced cytotoxicity, in words (human SCLC OC—NYH cells [2]; concentrations up to 500 μM): no detectable effect | inhibitory effect on ATPase reaction, in words (topoisomerase II α; concentration not given): capable of inhibiting topoisomerase II ATPase activity

Compound: COc1cc(NS(C)(=O)=O)ccc1Nc1c2ccccc2nc2ccccc12 [m-AMSA, methanesulfone-m-anisidine-4′-[(9-acridinyl)amino] hydrochloride]
effect on Δcpm with increasing concentrations, in words ([3]; with ATP, FIG. 6): increase Δcpm in a dose-dependent manner

Compound: Nc1nc(OCC2CCCCC2)c2nc[nH]c2n1 [NU 2058, O^6-cyclohexylmethylguanine]
inhibition of ATPase activity in the presence of DTT, in words (topoisomerase II α): could inhibit ATPase activity | IC50 (topoisomerase II α; [6]): 300 µM

Compound: Nc1nc(OCc2ccccc2)c2nc[nH]c2n1 [O^6-benzylguanine]
inhibition of ATPase activity in the presence of DTT, in words (topoisomerase II α): could inhibit ATPase activity | IC50 (topoisomerase II α; [6]): 1000 µM

Compound: COc1cc([C@@H]2c3cc4c(cc3[C@@H](O[C@@H]3O[C@@H]5CO[C@@H](C)O[C@H]5[C@H](O)[C@H]3O)[C@H]3COC(=O)[C@H]23)OCO4)cc(OC)c1O [etoposide, 4′-demethylepipodophyllotoxin 9-(4,6-O-ethylidene-b-D-glucopyranoside)]
effect on Δcpm with increasing concentrations, in words ([3]; ATP omitted from the reaction): no detectable increase in Δcpm | increase of the level of covalent complex formation, factor ([3]; etoposide up to 40 μM, with ATP): 6 | effect on Δcpm with increasing concentrations, in words ([3]; with ATP, FIG. 6): increase Δcpm in a dose-dependent manner | DNA fragmentation by the drug alone, in words (human SCLC OC—NYH cells [4]): extensive fragmentation of DNA

Compound: Sc1ncnc2nc[nH]c12 [6-thiopurine]
concentration at which maximal inhibition of DNA strand passage activity is reached ([1]; FIG. 5): > 1000 µM | effect on the level of etoposide-induced cytotoxicity, in words (human SCLC OC—NYH cells [2]; concentrations up to 300 μM): no detectable effect | IC50 (topoisomerase II α; [6]): ~100 µM

Compound: Nc1nc(Cl)c2nc[nH]c2n1 [6-chloroguanine, reference compound]
inhibitory effect on ATPase reaction, in words (topoisomerase II α; concentration not given): no inhibitory effect

Compound: Nc1nc2c(ncn2COCCO)c(=O)[nH]1 [acyclovir, 9-[(2-hydroxyethoxy)methyl]guanine, reference compound]
inhibitory effect on ATPase reaction, in words (topoisomerase II α; concentrations up to 300 μM): no inhibitory effect

Compound: Nc1nc2nc[nH]c2c(=S)[nH]1 [6-thioguanine, reference compound]
IC50 ([1]; FIG. 5, read-out: half-maximal inhibition of DNA strand passage activity): ~50 µM | IC50 (topoisomerase II α; [6]): ~30 µM

Compound: CSc1nc(N)nc2nc[nH]c12 [6-methylthioguanine]
inhibition of DNA strand passage (decatenation) activity, in words [1]: almost no inhibition of decatenation activity | effect on the level of etoposide-induced cytotoxicity, in words (human SCLC OC—NYH cells [2]; concentrations up to 500 μM): no detectable effect | inhibitory effect on ATPase reaction, in words (topoisomerase II α; concentration not given): capable of inhibiting topoisomerase II ATPase activity

Compound: S=c1[nH]c(=S)c2[nH]cnc2[nH]1 [2,6-dithiopurine]
inhibition of DNA strand passage (decatenation) activity, in words [1]: an effect between that of the two 6-substituted thiopurines | effect on the level of etoposide-induced cytotoxicity, in words (human SCLC OC—NYH cells [2]; concentrations up to 30 μM): no detectable effect | IC50 (topoisomerase II α; [6]): ~3 µM
